Measured values from patent US6660742B2, “Compositions and methods of the use thereof achiral analogues of CC-1065 and the duocarmycins” (priority 2000, dated 2003).

Experiments:
[1] = tested on: panel of 60 human cancer cell lines; test: NCI in-vitro cytotoxicity screen, whole panel; assay type: cell-based
melanoma = conditions: phase I clinical trial; cited from earlier work
L1210 leukemia = conditions: carzelesin 400 μg/kg, adozelesin 100 μg/kg; cited from earlier work
[2] = mice; therapeutic doses; cited from earlier work
[3] = favoring the natural (+)-isomer; cited from earlier work

Experimental for BT-549: (§1) The compounds of this invention were also tested against the panel of 60 human cancer cell lines at the National Cancer Institute, Bethesda, Md. (44). The cytrotoxicity studies were conducted using a 48 hour exposure, and measuring the optical density of sulforhodamide B-derived color.
Experimental for CCRF-CEM: (§2) The compounds of this invention were also tested against the panel of 60 human cancer cell lines at the National Cancer Institute, Bethesda, Md. […] The cytrotoxicity studies were conducted using a 48 hour exposure, and measuring the optical density of sulforhodamide B-derived color.
Experimental for HS 578T: as §1
Experimental for HT29: as §2
Experimental for K-562: as §2
Experimental for LOX IMVI: as §1
Experimental for MOLT-4: as §2
Experimental for NCI-H23: as §2
Experimental for OVCAR-8: as §1
Experimental for SF-268: as §1
Experimental for SR: as §2
Experimental for TK-10: as §2

**Q.** With `COc1cc2cc(C(=O)Nc3cc(O)ccc3CCCl)[nH]c2c(OC)c1OC` [Compound 3, 4-(2-Chloroethyl)-3-(5,6,7-trimethoxyindole-2-carboxamino)phenol] as the compound, how does the CC50 (OVCAR-8) read?
**A.** > 100 µM

**Q.** What about the CC50 (NCI-H322M) of the same compound?
**A.** > 100 µM

**Q.** What about the GI50 (NCI-H322M) of the same compound?
**A.** 2.81 µM

**Q.** And the CC50 (SF-268)?
**A.** > 100 µM

**Q.** And the range of activity ([1]; 48 hour exposure)?
**A.** micromolar range

**Q.** What about the “activity against leukemia cells” value ([1]; leukemia cells) of the same compound?
**A.** none of these compounds showed much activity

**Q.** What about the “activity against melanoma cells” value ([1]; melanoma cells) of the same compound?
**A.** active

**Q.** What about the “activity against solid tumors cells” value ([1]; solid tumors cells) of the same compound?
**A.** strong activity

**Q.** What about the CC50 (TK-10) of the same compound?
**A.** 23.5 µM

**Q.** And the CC50 (MOLT-4)?
**A.** > 100 µM

**Q.** And the CC50 (HT29)?
**A.** > 100 µM

**Q.** And the CC50 (CCRF-CEM)?
**A.** > 100 µM

**Q.** What about the CC50 (LOX IMVI) of the same compound?
**A.** > 100 µM

**Q.** And the CC50 (SR)?
**A.** > 100 µM

**Q.** What about the CC50 (K-562) of the same compound?
**A.** > 100 µM

**Q.** And the CC50 (HS 578T)?
**A.** > 100 µM

**Q.** What about the CC50 (BT-549) of the same compound?
**A.** > 100 µM

**Q.** What about the CC50 (NCI-H23) of the same compound?
**A.** > 100 µM

**Q.** With `Cc1c[nH]c2c1[C@@]13C[C@@H]1CN(C(=O)c1cc4cc(NC(=O)c5cc6ccccc6o5)ccc4[nH]1)C3=CC2=O` [adozelesin] as the compound, how does the clinical response (melanoma) read?
**A.** partial response

**Q.** What about the ILS (L1210 leukemia) of the same compound?
**A.** 90±11%

**Q.** And the survival (L1210 leukemia)?
**A.** 0/6

**Q.** And the “delayed lethality / delayed toxicity” value [2]?
**A.** devoid of the delayed toxicity problem

**Q.** Which “difference in cytotoxicity between enantiomers” value [3] does the source give for CPI-In-In here?
**A.** about 250 fold
